Experimental data taken from ChEMBL document CHEMBL1201862, “PubChem BioAssay data set” (2004).
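Test compounds were applied to cells in 96-well plates for 48 hours at 5 doses. GI50 marks 50% less growth.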 Activity calls are given as the source filed them. Rule as the data show it: active = GI50 up to about 1.1 µM and inactive = higher.

Tests used:
Assay in all cases: growth of human tumour cells (NCI), 48 h
NCI-H522 = system: NCI-H522
UACC-62 = system: UACC-62
SK-MEL-2 = system: SK-MEL-2
OVCAR-3 = system: OVCAR-3
SN12C = system: SN12C
U-251 = system: U-251
KM12 = system: KM12
HCC 2998 = system: HCC 2998
EKVX = system: EKVX
HOP-92 = system: HOP-92
OVCAR-8 = system: OVCAR-8
RPMI-8226 = system: RPMI-8226
HL-60 = system: HL-60
SNB-19 = system: SNB-19
SF-268 = system: SF-268
HCT-15 = system: HCT-15
OVCAR-4 = system: OVCAR-4
SNB-75 = system: SNB-75
IGROV-1 = system: IGROV-1
UO-31 = system: UO-31

Compound | GI50 (NCI-H522) | GI50 (UACC-62) | GI50 (SK-MEL-2) | GI50 (OVCAR-3) | GI50 (SN12C) | GI50 (U-251) | GI50 (KM12) | GI50 (HCC 2998) | GI50 (EKVX) | GI50 (HOP-92) | GI50 (OVCAR-8) | GI50 (RPMI-8226) | GI50 (HL-60) | GI50 (SNB-19) | GI50 (SF-268) | GI50 (HCT-15) [µM] | GI50 (OVCAR-4) | GI50 (SNB-75) | GI50 (IGROV-1) | GI50 (UO-31)
Nc1c(S(=O)(=O)O)cc2cc(S(=O)(=O)O)ccc2c1/N=N/c1ccc(-c2ccc(/N=N/c3c(N)c(S(=O)(=O)O)cc4cc(S(=O)(=O)O)ccc34)c(S(=O)(=O)O)c2)cc1 | > 100 µM (inactive) | > 100 µM (inactive) | > 100 µM (inactive) | 71.3 µM (inactive) | > 100 µM (inactive) | > 100 µM (inactive) | > 100 µM (inactive) | > 100 µM (inactive) | > 100 µM (inactive) | > 56.9 µM (inactive) | > 100 µM (inactive) | > 100 µM (inactive) | > 71.1 µM (inactive) | > 100 µM (inactive) | > 100 µM (inactive) | > 91.4 | 29.4 µM (inactive) | 85.5 µM (inactive) | 54.7 µM (inactive) | > 92.3 µM (inactive)
NN1C(=O)C(CCO)S/C1=N/N=C1/SC(CCO)C(=O)N1N (stereo not given) | > 100 µM (inactive) | > 100 µM (inactive) | > 100 µM (inactive) | > 100 µM (inactive) | > 100 µM (inactive) | > 100 µM (inactive) | > 100 µM (inactive) | > 100 µM (inactive) | > 100 µM (inactive) | > 100 µM (inactive) | > 100 µM (inactive) | > 100 µM (inactive) | > 100 µM (inactive) | > 100 µM (inactive) | > 100 µM (inactive) | > 100 | > 100 µM (inactive) | > 100 µM (inactive) | > 100 µM (inactive) | > 100 µM (inactive)
c1ccc(C(c2ccccc2)[P+](c2ccccc2)(c2ccccc2)c2ccccc2)cc1 | 0.223 µM (active) | 0.332 µM (active) | 0.305 µM (active) | 0.336 µM (active) | 0.592 µM (active) | 0.431 µM (active) | 0.241 µM (active) | 0.365 µM (active) | 4.7 µM (inactive) | 0.543 µM (active) | 0.542 µM (active) | 0.226 µM (active) | 0.182 µM (active) | 0.526 µM (active) | 0.556 µM (active) | 4.62 | 0.479 µM (active) | 0.467 µM (active) | 0.394 µM (active) | 0.951 µM (active)
CCOc1ccc(NC(=O)/C(CC(=O)c2c[n+]([O-])c3ccccc3[n+]2[O-])=N\OCCCc2ccccc2)cc1 | > 100 µM (inactive) | > 100 µM (inactive) | > 100 µM (inactive) | > 100 µM (inactive) | > 100 µM (inactive) | > 100 µM (inactive) | > 100 µM (inactive) | > 100 µM (inactive) | > 100 µM (inactive) | 16.9 µM (inactive) | > 100 µM (inactive) | > 100 µM (inactive) | > 100 µM (inactive) | > 100 µM (inactive) | > 100 µM (inactive) | > 100 | > 100 µM (inactive) | > 100 µM (inactive) | > 100 µM (inactive) | > 100 µM (inactive)
CC1(C)C(N2CCOCC2)CS1(=O)=O (stereo not given) | > 10 µM (inactive) | > 10 µM (inactive) | > 10 µM (inactive) | > 10 µM (inactive) | > 10 µM (inactive) | > 10 µM (inactive) | > 10 µM (inactive) | > 10 µM (inactive) | > 10 µM (inactive) | > 10 µM (inactive) | > 10 µM (inactive) | > 10 µM (inactive) | > 10 µM (inactive) | > 10 µM (inactive) | > 10 µM (inactive) | > 10 | > 10 µM (inactive) | 4.98 µM (inactive) | > 10 µM (inactive) | > 10 µM (inactive)
CC(=O)NC(c1nc2cc(C)c(C)cc2[nH]1)c1nc2cc(C)c(C)cc2[nH]1 | 5.12 µM (inactive) | 32.7 µM (inactive) | 36.8 µM (inactive) | 13.9 µM (inactive) | 15.9 µM (inactive) | 20.9 µM (inactive) | 16 µM (inactive) | 16.9 µM (inactive) | 24.3 µM (inactive) | 19.8 µM (inactive) | 20 µM (inactive) | 4.57 µM (inactive) | 28.2 µM (inactive) | 41.5 µM (inactive) | 23.2 µM (inactive) | 21.2 | 21.9 µM (inactive) | 22.1 µM (inactive) | 11.7 µM (inactive) | 25.4 µM (inactive)
COc1cccc2c1C(=O)c1c(O)c3c(c(O)c1C2=O)CC(O)(C(=O)CO)CC3OC1CC(N)C(I)C(C)O1 (stereo not given) | 2.9 µM (inactive) | 1.58 µM (inactive) | 9.79 µM (inactive) | > 33.4 µM (inactive) | 2.38 µM (inactive) | 2.7 µM (inactive) | > 30.3 µM (inactive) | 13.5 µM (inactive) | 14.4 µM (inactive) | 9.68 µM (inactive) | 3.58 µM (inactive) | 4.5 µM (inactive) | 0.428 µM (active) | 3.12 µM (inactive) | 15.9 µM (inactive) | 1.83 | 4.01 µM (inactive) | 2.52 µM (inactive) | 1.88 µM (inactive) | 4.88 µM (inactive)
Cn1c(-c2cccs2)cc(-c2cccs2)c1-c1ccco1 | 21.2 µM (inactive) | 30.9 µM (inactive) | 30.3 µM (inactive) | 19.2 µM (inactive) | > 94.6 µM (inactive) | 56.1 µM (inactive) | 6.07 µM (inactive) | 26.6 µM (inactive) | 16.6 µM (inactive) | 63 µM (inactive) | > 100 µM (inactive) | 31 µM (inactive) | 23.9 µM (inactive) | > 100 µM (inactive) | > 66.4 µM (inactive) | 14.4 | 1.7 µM (inactive) | 31.8 µM (inactive) | > 48.9 µM (inactive) | 31.5 µM (inactive)
Nc1nc(N)c(N=O)c(OCC2CCCCC2)n1 | 5.96 µM (inactive) | 6.98 µM (inactive) | 11 µM (inactive) | 8.47 µM (inactive) | 5.15 µM (inactive) | 15.7 µM (inactive) | 18.7 µM (inactive) | 14.9 µM (inactive) | 20.5 µM (inactive) | 7.83 µM (inactive) | 15 µM (inactive) | 6.52 µM (inactive) | 14.7 µM (inactive) | 26.8 µM (inactive) | 8.49 µM (inactive) | 5.5 | 10 µM (inactive) | 5.01 µM (inactive) | 3.23 µM (inactive) | 5.16 µM (inactive)
